Tests used:
mouse = experiment: Oral activity in vivo (audiogenic mouse test and/or MES test); settings: oral administration
Procedure: The oral bioavailability was tested using the audiogenic mouse test (Audiogenic seizures, R. L. Collins; Chapter 14, pages: 347-372. In: Experimental Models of Epilepsy; By: Pupura, Penry, Tower, Woodbury, Waiter, Raven Press, New York, 1972. Standard Book Number: 0-911216-26-X) and/or the MES test.

OF1 mice = experiment: Murine maximal electroshock test (MES test); format: in vivo, mouse; settings: p.o., percentage of protected mice, printed '@ 20' (mg/kg)

## Cn1nccc1-c1cc2c(=O)n(NS(C)(=O)=O)c(=O)[nH]c2cc1C(C)(F)F [Compound C-15, N-[7-(1,1-difluoro-ethyl)-6-(2-methyl-2H-pyrazol-3-yl)-2,4-dioxo-1,4-dihydro-2H-quinazolin-3-yl]-methanesulfonamide]
mouse
  In vivo orally active: Yes
OF1 mice
  MES-Test (1 h, po) % protection @ 20: 80% @ 20^
